Data from ChEMBL document CHEMBL1201861, “Genomics of Drug Sensitity in Cancer screening data, Wellcome Trust Sanger Institute”.

How the values were obtained:
Assay type in all cases: functional, cell-based
Ca-Ski = test: cells; conditions: Homo sapiens
Description: SANGER: Inhibition of human Ca-Ski cell growth in a cell viability assay.

D-247MG = test: cells; conditions: Homo sapiens
Description: SANGER: Inhibition of human D-247MG cell growth in a cell viability assay.

D-336MG = test: cells; conditions: Homo sapiens
Description: SANGER: Inhibition of human D-336MG cell growth in a cell viability assay.

EFO-27 = test: cells; conditions: Homo sapiens
Description: SANGER: Inhibition of human EFO-27 cell growth in a cell viability assay.

HCC1937 = test: cells; conditions: Homo sapiens
Description: SANGER: Inhibition of human HCC1937 cell growth in a cell viability assay.

HT-1376 = test: cells; conditions: Homo sapiens
Description: SANGER: Inhibition of human HT-1376 cell growth in a cell viability assay.

HT-29 = test: cells; conditions: Homo sapiens
Description: SANGER: Inhibition of human HT-29 cell growth in a cell viability assay.

HuP-T3 = test: cells; conditions: Homo sapiens
Description: SANGER: Inhibition of human HuP-T3 cell growth in a cell viability assay.

IGR-1 = test: cells; conditions: Homo sapiens
Description: SANGER: Inhibition of human IGR-1 cell growth in a cell viability assay.

KNS-62 = test: cells; conditions: Homo sapiens
Description: SANGER: Inhibition of human KNS-62 cell growth in a cell viability assay.

KYSE-510 = test: cells; conditions: Homo sapiens
Description: SANGER: Inhibition of human KYSE-510 cell growth in a cell viability assay.

KYSE-520 cell line = test: cells; conditions: Homo sapiens
Description: SANGER: Inhibition of human KYSE-520 cell growth in a cell viability assay.

LB996-RCC = test: cells; conditions: Homo sapiens
Description: SANGER: Inhibition of human LB996-RCC cell growth in a cell viability assay.

LU-135 = test: cells; conditions: Homo sapiens
Description: SANGER: Inhibition of human LU-135 cell growth in a cell viability assay.

MG-63 = test: cells; conditions: Homo sapiens
Description: SANGER: Inhibition of human MG-63 cell growth in a cell viability assay.

NB14 = test: cells; conditions: Homo sapiens
Description: SANGER: Inhibition of human NB14 cell growth in a cell viability assay.

NB17 = test: cells; conditions: Homo sapiens
Description: SANGER: Inhibition of human NB17 cell growth in a cell viability assay.

NCI-H1703 = test: cells; conditions: Homo sapiens
Description: SANGER: Inhibition of human NCI-H1703 cell growth in a cell viability assay.

NCI-H1755 = test: cells; conditions: Homo sapiens
Description: SANGER: Inhibition of human NCI-H1755 cell growth in a cell viability assay.

NCI-H2009 = test: cells; conditions: Homo sapiens
Description: SANGER: Inhibition of human NCI-H2009 cell growth in a cell viability assay.

NCI-H2030 = test: cells; conditions: Homo sapiens
Description: SANGER: Inhibition of human NCI-H2030 cell growth in a cell viability assay.

NCI-H2052 = test: cells; conditions: Homo sapiens
Description: SANGER: Inhibition of human NCI-H2052 cell growth in a cell viability assay.

NCI-H2342 = test: cells; conditions: Homo sapiens
Description: SANGER: Inhibition of human NCI-H2342 cell growth in a cell viability assay.

NCI-H292 = test: cells; conditions: Homo sapiens
Description: SANGER: Inhibition of human NCI-H292 cell growth in a cell viability assay.

NCI-H630 = test: cells; conditions: Homo sapiens
Description: SANGER: Inhibition of human NCI-H630 cell growth in a cell viability assay.

P12-Ichikawa = test: cells; conditions: Homo sapiens
PA-1 = test: cells; conditions: Homo sapiens
Description: SANGER: Inhibition of human PA-1 cell growth in a cell viability assay.

PANC-03-27 = test: cells; conditions: Homo sapiens
Description: SANGER: Inhibition of human PANC-03-27 cell growth in a cell viability assay.

PC-14 = test: cells; conditions: Homo sapiens
Description: SANGER: Inhibition of human PC-14 cell growth in a cell viability assay.

RCM-1 = test: cells; conditions: Homo sapiens
Description: SANGER: Inhibition of human RCM-1 cell growth in a cell viability assay.

RPMI-2650 = test: cells; conditions: Homo sapiens
Description: SANGER: Inhibition of human RPMI-2650 cell growth in a cell viability assay.

RVH-421 = test: cells; conditions: Homo sapiens
Description: SANGER: Inhibition of human RVH-421 cell growth in a cell viability assay.

SCC-25 = test: cells; conditions: Homo sapiens
Description: SANGER: Inhibition of human SCC-25 cell growth in a cell viability assay.

SK-MEL-30 = test: cells; conditions: Homo sapiens
Description: SANGER: Inhibition of human SK-MEL-30 cell growth in a cell viability assay.

SN12C = test: cells; conditions: Homo sapiens
Description: SANGER: Inhibition of human SN12C cell growth in a cell viability assay.

T-24 = test: cells; conditions: Homo sapiens
Description: SANGER: Inhibition of human T-24 cell growth in a cell viability assay.

23132-87 = test: cells; conditions: Homo sapiens
Description: SANGER: Inhibition of human 23132-87 cell growth in a cell viability assay.

647-V = test: cells; conditions: Homo sapiens
Description: SANGER: Inhibition of human 647-V cell growth in a cell viability assay.

A2058 = test: cells; conditions: Homo sapiens
Description: SANGER: Inhibition of human A2058 cell growth in a cell viability assay.

A253 cell line = test: cells; conditions: Homo sapiens
Description: SANGER: Inhibition of human A253 cell growth in a cell viability assay.

A673 = test: cells; conditions: Homo sapiens
Description: SANGER: Inhibition of human A673 cell growth in a cell viability assay.

BXPC-3 = test: cells; conditions: Homo sapiens
Description: SANGER: Inhibition of human BxPC-3 cell growth in a cell viability assay.

C-33-A = test: cells; conditions: Homo sapiens
Description: SANGER: Inhibition of human C-33-A cell growth in a cell viability assay.

CAL-51 = test: cells; conditions: Homo sapiens
Description: SANGER: Inhibition of human CAL-51 cell growth in a cell viability assay.

CAL-62 = test: cells; conditions: Homo sapiens
Description: SANGER: Inhibition of human CAL-62 cell growth in a cell viability assay.

TYK-nu = test: cells; conditions: Homo sapiens
Description: SANGER: Inhibition of human TYK-nu cell growth in a cell viability assay.

UMUC3 = test: cells; conditions: Homo sapiens
Description: SANGER: Inhibition of human UM-UC-3 cell growth in a cell viability assay.

Calu-1 = test: SANGER: Inhibition of human Calu-1 cell growth in a cell viability assay.
Daudi = test: cells; conditions: Homo sapiens
Description: SANGER: Inhibition of human Daudi cell growth in a cell viability assay.

EFE-184 = test: cells; conditions: Homo sapiens
Description: SANGER: Inhibition of human EFE-184 cell growth in a cell viability assay.

KARPAS-422 = test: cells; conditions: Homo sapiens
Description: SANGER: Inhibition of human KARPAS-422 cell growth in a cell viability assay.

L-540 = test: cells; conditions: Homo sapiens
Description: SANGER: Inhibition of human L-540 cell growth in a cell viability assay.

LU-165 = test: cells; conditions: Homo sapiens
Description: SANGER: Inhibition of human LU-165 cell growth in a cell viability assay.

MDA-MB-134-VI = test: cells; conditions: Homo sapiens
Description: SANGER: Inhibition of human MDA-MB-134-VI cell growth in a cell viability assay.

MDA-MB-468 = test: cells; conditions: Homo sapiens
Description: SANGER: Inhibition of human MDA-MB-468 cell growth in a cell viability assay.

NCI-H1694 = test: cells; conditions: Homo sapiens
Description: SANGER: Inhibition of human NCI-H1694 cell growth in a cell viability assay.

NCI-H1734 = test: cells; conditions: Homo sapiens
Description: SANGER: Inhibition of human NCI-H1734 cell growth in a cell viability assay.

NCI-H2141 = test: cells; conditions: Homo sapiens
Description: SANGER: Inhibition of human NCI-H2141 cell growth in a cell viability assay.

NCI-H322M = test: cells; conditions: Homo sapiens
Description: SANGER: Inhibition of human NCI-H322M cell growth in a cell viability assay.

NCI-H345 = test: cells; conditions: Homo sapiens
Description: SANGER: Inhibition of human NCI-H345 cell growth in a cell viability assay.

SNU-16 = test: cells; conditions: Homo sapiens
Description: SANGER: Inhibition of human NCI-SNU-16 cell growth in a cell viability assay.

P31-FUJ = test: cells; conditions: Homo sapiens
Description: SANGER: Inhibition of human P31-FUJ cell growth in a cell viability assay.

PLC-PRF-5 = test: cells; conditions: Homo sapiens
Description: SANGER: Inhibition of human PLC-PRF-5 cell growth in a cell viability assay.

SU-DHL-1 = test: SANGER: Inhibition of human SU-DHL-1 cell growth in a cell viability assay.
ARH-77 = test: cells; conditions: Homo sapiens
Description: SANGER: Inhibition of human ARH-77 cell growth in a cell viability assay.

## O=c1cc(N2CCOCC2)oc2c(-c3cccc4c3sc3ccccc34)cccc12
Ca-Ski
  IC50: > 2 µM
D-247MG
  IC50: > 2 µM
D-336MG
  IC50: > 2 µM
EFO-27
  IC50: > 2 µM
HCC1937
  IC50: > 2 µM
HT-1376
  IC50: > 2 µM
HT-29
  IC50: > 2 µM
HuP-T3
  IC50: > 2 µM
IGR-1
  IC50: > 2 µM
KNS-62
  IC50: > 2 µM
KYSE-510
  IC50: > 2 µM
KYSE-520 cell line
  IC50: > 2 µM
LB996-RCC
  IC50: > 2 µM
LU-135
  IC50: > 2 µM
MG-63
  IC50: > 2 µM
NB14
  IC50: > 2 µM
NB17
  IC50: > 2 µM
NCI-H1703
  IC50: > 2 µM
NCI-H1755
  IC50: > 2 µM
NCI-H2009
  IC50: > 2 µM
NCI-H2030
  IC50: > 2 µM
NCI-H2052
  IC50: > 2 µM
NCI-H2342
  IC50: > 2 µM
NCI-H292
  IC50: 1.74 µM
NCI-H630
  IC50: > 2 µM
P12-Ichikawa
  IC50: > 2 µM
PA-1
  IC50: 1.58 µM
PANC-03-27
  IC50: > 2 µM
PC-14
  IC50: > 2 µM
RCM-1
  IC50: > 2 µM
RPMI-2650
  IC50: > 2 µM
RVH-421
  IC50: > 2 µM
SCC-25
  IC50: > 2 µM
SK-MEL-30
  IC50: > 2 µM
SN12C
  IC50: > 2 µM
T-24
  IC50: > 2 µM
23132-87
  IC50: > 2 µM
647-V
  IC50: > 2 µM
A2058
  IC50: > 2 µM
A253 cell line
  IC50: > 2 µM
A673
  IC50: > 2 µM
BXPC-3
  IC50: > 2 µM
C-33-A
  IC50: > 2 µM
CAL-51
  IC50: > 2 µM
CAL-62
  IC50: > 2 µM
TYK-nu
  IC50: > 2 µM
UMUC3
  IC50: > 2 µM

## N#C/C(=C1/Nc2ccccc2S1)c1ccnc(NCCc2cccnc2)n1
Ca-Ski
  IC50: > 8 µM
Calu-1
  IC50: > 8 µM
Daudi
  IC50: 6.54 µM
EFE-184
  IC50: 4.7 µM
EFO-27
  IC50: > 8 µM
HCC1937
  IC50: 3.25 µM
HT-1376
  IC50: 7.32 µM
HT-29
  IC50: 4.27 µM
HuP-T3
  IC50: > 8 µM
IGR-1
  IC50: 4.68 µM
KARPAS-422
  IC50: > 8 µM
KYSE-510
  IC50: > 8 µM
KYSE-520 cell line
  IC50: > 8 µM
L-540
  IC50: > 8 µM
LB996-RCC
  IC50: 2.86 µM
LU-165
  IC50: > 8 µM
MDA-MB-134-VI
  IC50: > 8 µM
MDA-MB-468
  IC50: > 8 µM
MG-63
  IC50: 3.29 µM
NCI-H1694
  IC50: > 8 µM
NCI-H1703
  IC50: > 8 µM
NCI-H1734
  IC50: > 8 µM
NCI-H1755
  IC50: > 8 µM
NCI-H2009
  IC50: > 8 µM
NCI-H2030
  IC50: > 8 µM
NCI-H2052
  IC50: > 8 µM
NCI-H2141
  IC50: > 8 µM
NCI-H2342
  IC50: 4.52 µM
NCI-H292
  IC50: > 8 µM
NCI-H322M
  IC50: > 8 µM
NCI-H345
  IC50: > 8 µM
SNU-16
  IC50: > 8 µM
P12-Ichikawa
  IC50: > 8 µM
P31-FUJ
  IC50: > 8 µM
PA-1
  IC50: 1.53 µM
PANC-03-27
  IC50: 2.9 µM
PC-14
  IC50: 3.62 µM
PLC-PRF-5
  IC50: > 8 µM
RCM-1
  IC50: > 8 µM
RPMI-2650
  IC50: 2.58 µM
RVH-421
  IC50: > 8 µM
SCC-25
  IC50: 5.31 µM
SK-MEL-30
  IC50: > 8 µM
SN12C
  IC50: > 8 µM
SU-DHL-1
  IC50: > 8 µM
T-24
  IC50: > 8 µM
23132-87
  IC50: 7.1 µM
647-V
  IC50: > 8 µM
A2058
  IC50: > 8 µM
A253 cell line
  IC50: > 8 µM
A673
  IC50: > 8 µM
ARH-77
  IC50: > 8 µM
BXPC-3
  IC50: 1.86 µM
C-33-A
  IC50: 2.67 µM
CAL-51
  IC50: 5.3 µM
CAL-62
  IC50: 5.89 µM
TYK-nu
  IC50: 1.75 µM
UMUC3
  IC50: > 8 µM

## CCCS(=O)(=O)Nc1ccc(F)c(C(=O)c2c[nH]c3ncc(Cl)cc23)c1F [PLX-4720]
Ca-Ski
  IC50: > 10 µM
D-247MG
  IC50: > 10 µM
D-336MG
  IC50: > 10 µM
EFO-27
  IC50: > 10 µM
HCC1937
  IC50: > 10 µM
HT-1376
  IC50: > 10 µM
HT-29
  IC50: > 10 µM
HuP-T3
  IC50: > 10 µM
IGR-1
  IC50: > 10 µM
KNS-62
  IC50: > 10 µM
KYSE-510
  IC50: > 10 µM
KYSE-520 cell line
  IC50: > 10 µM
LB996-RCC
  IC50: > 10 µM
LU-135
  IC50: > 10 µM
MG-63
  IC50: > 10 µM
NB14
  IC50: > 10 µM
NB17
  IC50: > 10 µM
NCI-H1703
  IC50: > 10 µM
NCI-H1755
  IC50: > 10 µM
NCI-H2009
  IC50: > 10 µM
NCI-H2030
  IC50: > 10 µM
NCI-H2052
  IC50: > 10 µM
NCI-H2342
  IC50: > 10 µM
NCI-H292
  IC50: > 10 µM
NCI-H630
  IC50: > 10 µM
P12-Ichikawa
  IC50: > 10 µM
PA-1
  IC50: 2.73 µM
PANC-03-27
  IC50: > 10 µM
PC-14
  IC50: > 10 µM
RCM-1
  IC50: > 10 µM
RPMI-2650
  IC50: > 10 µM
RVH-421
  IC50: 0.868 µM
SCC-25
  IC50: > 10 µM
SK-MEL-30
  IC50: 1.33 µM
SN12C
  IC50: > 10 µM
T-24
  IC50: > 10 µM
23132-87
  IC50: > 10 µM
647-V
  IC50: > 10 µM
A2058
  IC50: 4.72 µM
A253 cell line
  IC50: > 10 µM
A673
  IC50: > 10 µM
BXPC-3
  IC50: > 10 µM
C-33-A
  IC50: > 10 µM
CAL-51
  IC50: > 10 µM
CAL-62
  IC50: > 10 µM
TYK-nu
  IC50: > 10 µM
UMUC3
  IC50: > 10 µM
